For orientation: IC50 means the concentration that gives 50% inhibition. A word on the melting point: it is the temperature, or range, at which the solid turns liquid.

The target of series [1] is T1, cloned human α2A receptors (Homo sapiens, UniProt P08913).
T1 construct: expressed in transfected cells; host or cells: Chinese Hamster Ovary (CHO) cells
T1 sequence (P08913 1-465): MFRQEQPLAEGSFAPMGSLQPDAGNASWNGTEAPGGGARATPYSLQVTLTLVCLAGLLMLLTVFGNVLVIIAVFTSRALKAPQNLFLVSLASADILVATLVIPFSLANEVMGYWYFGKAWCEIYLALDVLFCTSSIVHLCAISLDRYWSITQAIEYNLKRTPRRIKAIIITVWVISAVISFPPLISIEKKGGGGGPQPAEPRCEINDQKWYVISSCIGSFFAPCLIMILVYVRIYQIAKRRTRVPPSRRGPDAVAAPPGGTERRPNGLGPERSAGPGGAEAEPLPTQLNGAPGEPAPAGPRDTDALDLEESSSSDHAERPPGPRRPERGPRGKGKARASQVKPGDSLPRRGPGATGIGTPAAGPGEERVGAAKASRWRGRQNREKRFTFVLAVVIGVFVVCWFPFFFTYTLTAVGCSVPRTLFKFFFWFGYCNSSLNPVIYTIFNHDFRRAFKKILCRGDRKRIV
Description: In vitro radioligand binding affinity for α2A receptor (3H-rauwolscine competition). Particulars: read-out: dissociation: IC50 value for the α2a receptor. As to the method: The interaction of the compounds of formula (I) with α2 receptors was assessed in in vitro radioligand binding experiments.
In general, a low concentration of a radioligand with a high binding affinity for a particular receptor is incubated with a sample of a tissue preparation enriched in a particular receptor or with a preparation of cells expressing cloned human receptors in a buffered medium. During the incubation, the radioligand binds to the receptor. When equilibrium of binding is reached, the receptor bound radioactivity is separated from the non-bound radioactivity, and the receptor bound activity is counted. The interaction of the test compounds with the receptor is assessed in competition binding experiments. Various concentrations of the test compound are added to the incubation mixture containing the receptor preparation and the radioligand. Binding of the radioligand will be inhibited by the test compound in proportion to its binding affinity and its concentration.
The radioligand used for α2A, α2B and α2C receptor binding is ^3H-rauwolscine and the receptor preparation used is the Chinese Hamster Ovary (CHO) cell expressing cloned human α2A, α2B and α2C receptors.

In the next series the target is dopamine D2 receptor (Homo sapiens, UniProt P14416). Put plainly: Receptor binding affinity for dopamine D2 (dissociation α2a / D2). Particulars: for Ratio D2/α2a (dissociation between the two receptors): ratio of IC50 D2 to IC50 α2a; for IC50: receptor binding affinity, dopamine D2. An excerpt: As already mentioned above, dopamine D2 antagonism may lead to an increased risk of EPS. Thus, the larger the dissociation between α2a and D2, the better. The columns headed “dissociation” show the IC50 value in molar (M) for the α2a receptor and the D2 receptor. By “Ratio” is meant the ratio D2/αa and this is an indication for the dissociation between said two receptors.
Chain of dopamine D2 receptor (P14416 whole entry, species assumed): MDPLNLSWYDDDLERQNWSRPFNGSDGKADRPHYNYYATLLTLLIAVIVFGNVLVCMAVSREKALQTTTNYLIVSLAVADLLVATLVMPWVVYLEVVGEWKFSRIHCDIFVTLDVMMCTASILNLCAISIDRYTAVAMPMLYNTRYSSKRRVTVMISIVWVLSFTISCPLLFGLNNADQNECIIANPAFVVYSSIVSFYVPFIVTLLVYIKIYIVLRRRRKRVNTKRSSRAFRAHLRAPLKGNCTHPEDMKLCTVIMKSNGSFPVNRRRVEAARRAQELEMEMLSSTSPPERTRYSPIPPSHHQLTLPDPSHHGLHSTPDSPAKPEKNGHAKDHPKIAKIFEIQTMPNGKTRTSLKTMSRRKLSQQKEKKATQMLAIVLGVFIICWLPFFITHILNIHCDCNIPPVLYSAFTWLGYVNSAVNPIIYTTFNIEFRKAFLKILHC

`O=C(CCCCCN1CCc2[nH]c3ccccc3c2C1)c1ccc(F)cc1` [Comp. 1] registered a melting point of 190 °C. The IC50 in series [1] was 5 nM. Moreover, on dopamine D2 receptor, the “Ratio D2/α2a (dissociation between the two receptors)” value (shortened to “Ratio D2/α2a”) amounted to 79 and the half-maximal inhibitory concentration (IC50) turned out to be 400 nM.

Turning to `O=C(CCCCCN1CCc2oc3ccccc3c2C1)c1ccc(F)cc1` [Comp. 2, 1-(4-fluorophenyl)-6-(1,2,3,4-tetrahydrobenzofuro[3,2-c]pyridin-2-yl)-1-hexanone (E)-2-butenedioate (1:1)], the IC50 in series [1] came to 0.26 nM. On dopamine D2 receptor, the “Ratio D2/α2a” value came to 1950 and the IC50 came out at 500 nM.

Take `O=C(CCCN1CCc2[nH]c3ccccc3c2C1)c1ccc(F)cc1` [reference compound]: the IC50 in series [1] turned out to be 41 nM. Besides, at dopamine D2 receptor, the “Ratio D2/α2a” value came to 2.5 and the 50% inhibitory concentration (IC50) is 100 nM.

In the case of `O=C(CCCN1CCc2oc3ccccc3c2C1)c1ccc(F)cc1` [reference compound], the IC50 in series [1] is 2.1 nM. At dopamine D2 receptor, the “Ratio D2/α2a” value turned out to be 102 and the IC50 is 210 nM.

(Values after patent US6576640B1, “Benzisoxazoles and phenones as α2-antagonists” (Janssen Pharmaceutica N.V., priority 1998, dated 2003).)
